Measured values as given in patent US8535897B2, “Assays for non-apoptotic cell death and uses thereof” (The Trustees of Columbia University in the City of New York, priority 2006, dated 2013).

Assays:
BJEH = experiment: Response of tumor cell lines to erastin (dose-response); assay type: cell-based, human; conditions: BJ-TERT
Method: (§1) In certain aspects, the invention provides that erastin is lethal to tumor cells with activating mutations in proteins downstream of RAS proteins. Dose-response of 30 tumor cell lines to erastin was measured, and at least 50% inhibition of cell viability in 19 of the 30 tumor cell lines was formed. Numerous sarcoma-derived tumor cell lines were sensitive to erastin, consistent with the fact that erastin was discovered in an engineered tumor cell line created from human fibroblasts. Non-limiting examples include, HT1080 fibrosarcoma cells. HT1080 fibrosarcoma cells, which have a known activating mutation in NRAS, (Plattner, R. et al. Differential contribution of the ERK and JNK mitogen-activated protein kinase cascades to Ras transformation of HT1080 fibrosarcoma and DLD-1 colon carcinoma cells. Oncogene. 18: 1807-17 (1999), were quite sensitive to erastin. In order to determine whether RAS-activated signaling was modulated in cell lines that respond to erastin, the phosphorylation status of ERK1/2 in 12 sarcoma cell lines with a range of sensitivities to erastin was evaluated. In certain aspects, the invention provides a non-zero correlation, such as for example, a correlation coefficient of 0.41, between ERK1/2 phosphorylation status and erastin sensitivity in these cell lines.
(§2) Given that oncogenic RAS activates at least four downstream pathways, analysis was performed to identify which downstream effects were necessary for erastin sensitivity. In certain embodiments, the invention provides that erastin inhibits growth and kills genuine tumor cells with RAS mutations. In other embodiments, the invention provides measures of the dose-response of 29 tumor cell lines to erastin, wherein there is at least 50% inhibition of viability in 18 of the cell lines (Table 4). Numerous sarcoma-derived tumor cell lines were sensitive to erastin, consistent with the fact that erastin was discovered in an engineered tumor cell line created from human fibroblasts.

A673 = experiment: as above; assay type: cell-based, human
Method: as §1, §2

HT1080 = experiment: as above; assay type: cell-based, human; conditions: HT 1080
Method: as §1, §2

BJELR = experiment: as above; assay type: cell-based, human; conditions: BJ-TERT/LT/ST/RASV12
Method: as §1, §2

BJ-TERT/LT/ST/RASV12 = experiment: Alamar blue viability assay, engineered tumor cells; assay type: cell-based, human
Method: Erastin was tested in a dilution series in five engineered cell lines derived from primary BJ fibroblasts. Cells were incubated with erastin for two days at 37° C. with 5% CO2, Alamar blue was added (10% final volume) and fluorescence measured (530 nm ex, 590 nm em). Cell lines harboring oncogenic RAS (triangles, circles and x's) were sensitive to erastin, but isogenic lines lacking oncogenic RAS (squares and diamonds) were resistant. Two different clones of engineered tumor cells (circles and triangles) responded similarly.
(a) BJ-TERT/LT/ST/RAS^V12 cells were treated with 9 μM erastin A1 for the indicated length of time, and the number of viable cells determined. (b) 1,000 BJ-TERT/LT/ST/RAS^V12 cells/well in 384-well plates were treated with erastin for 2 d, then alamar blue was added to a final concentration of 10% and the plates were incubated for 16 h. Red fluorescence resulting from reduction of alamar blue was detected on a Victor3 platereader. The percent growth inhibition is shown; error bars represent one SD. […] (c) TEM images (20,000× magnification) of BJ-TERT/LT/ST/RAS^V12 mitochondria after cells were treated with nothing, erastin (37 μM for 10 h) or staurosporine (STS, 1 μM for 5 h), and phase-contrast photograph of BJ-TERT/LT/ST/RAS^V12 cells 24 h after 9 μM erastin A1 treatment is also shown to indicate that even after cell death, nuclei are intact. (d) Anti-oxidants suppress erastin-induced death. BJ-TERT/LT/ST/RAS^V12 cells were treated as indicated and photographed. (e) The number of viable cells was quantified under each condition using a hemacytometer. (f) Iron chelators suppress erastin-induced cell death. Cells were seeded in 384-well plates (6,000 cells/well) and treated with 2-fold dilution series of erastin in the presence of 100 μM desferrioxamine mesylate (DFOM), 100 μM of iron chelator 1a, 100 μM of iron chelator 2, 10 μM or 1 μM of iron chelator 311. After 24 h, alamar blue was added and cell viability assayed. (g, h) Erastin-induced formation of oxidative species. BJ-TERT/LT/ST/RAS^V12 (shown in histogram plots, and in line graph as dark diamonds) or BJ-TERT cells (shown in line graph only, light circles) were treated with 4.6-μM erastin A1 and the level of intracellular oxidative species determined. (i, j) STS, but not erastin, induces PARP1 cleavage (red bands at top) in BJ-TERT/LT/ST/RAS^V12 cells and in A673, HT1080 and HeLa cells. NS: non-specific band. […] Cells were treated with STS or erastin, separated into mitochondrial and cytosolic fractions, and probed for cytochrome c (lower red band) and total VDAC (middle green band, pan-VDAC antibody). (1) Caspase-3 is not cleaved in response to erastin. Cells were treated as indicated and probed with an anti-caspase-3 antibody that recognizes both the full length and the cleaved, active form (lower band). […] ATP levels were measured, viable cells determined by Trypan Blue exclusion and ATP per viable cell determined. Abbreviations: DMSO, dimethylsulfoxide; BHT, butylated hydroxytoluene; TOC, alpha-tocopherol; ERA, erastin A1; CAR, beta-carotene; STS, staurosprine.
(a) Calu-1 lung carcinoma cells harboring oncogenic KRAS were infected with lentivirus containing shRNAs targeting KRAS or GFP. Sequences of shRNAs are indicated by starting nucleotide (nt) in the KRAS mRNA coding sequence. Cells were treated with erastin and viability measured by Trypan Blue exclusion. (b) Knockdown of KRAS was confirmed by western blot. (c,d) A673 cells harboring oncogenic BRAF were infected with lentiviral shRNAs targeting BRAF exon 5 (c) or the 5′ UTR (d), luciferase (LUC)(c) or GFP (d). Cells were treated with erastin and viability measured using Alamar Blue (c) and Trypan Blue (d). (e) Knockdown of BRAF was confirmed by western blot. […] BJ-TERT/LT/ST/RAS^V12 cells were treated with erastin alone or in with a MEK inhibitor U0126 (20 μM), MEK inhibitor I (10 μM) or MEK 1/2 inhibitor (50 μM). After 48 h, viability was determined using Trypan Blue. […]

several tumor cell lines = experiment: Potency in several tumor cell lines; assay type: cell-based

With `CCOc1ccccc1-n1c(C(C)N2CCN(C(=O)COc3ccc(Cl)cc3)CC2)nc2ccccc2c1=O` (stereo not shown) [erastin] the “Erastin Sensitivity (maximum killing induced by erastin)” value (shortened to “Erastin Sensitivity”) (BJEH) was 0.22, the “Erastin Sensitivity” value (A673) was 0.54 and the “Erastin Sensitivity” value (HT1080) was 0.98. The “Erastin Sensitivity” value (BJELR) was 1.00, the RAS-selective lethality (BJ-TERT/LT/ST/RASV12) was “at least 16 fold” and the RAS selectivity (BJ-TERT/LT/ST/RASV12; BJ-TERT/LT/ST vs BJ-TERT/LT/ST/RASV12) was greater than 16. For the same compound, the potency (several tumor cell lines) was 1000 to 5000 nM.
